Assay results as given in US11731964B2, “Benzamide antibacterial agents” (Purdue Research Foundation, priority 2018, dated 2023).
Values after ≈ are worked out from the molar mass of the structure shown. Where two headings read alike, the source gives them in different places.

Assays:
E. faecium ATCC = assay: MIC and MBC; assay type: cell-based; conditions: Enterococcus faecium, E. faecium ATCC
Procedure: (§1) Bacteria were cultured in cation-adjusted Mueller Hinton Broth (for strains in Tables 1 and 4) or Brain Heart Infusion broth (for Enterococcus faecium) or Tryptic Soy Broth (all other bacteria) in a 96-well plate at 37° C. for at least 20 hours. The MIC was classified as the lowest concentration where no visual growth of bacteria was observed. The minimum bactericidal concentration (MBC) was tested by spotting 4 μL from wells with no growth onto Tryptic Soy Agar (TSA) plates. Plates were incubated at 37° C. for at least 18 hours before recording the MBC.

MRSA NRS123 (USA400) = assay: MIC and MBC; assay type: cell-based; conditions: Staphylococcus aureus, MRSA NRS123 (USA400)
Procedure: as §1

MRSA NRS384 (USA300) = assay: MIC and MBC; assay type: cell-based; conditions: Staphylococcus aureus, MRSA NRS384 (USA300)
Procedure: as §1

MRSA NRS386 (USA700) = assay: MIC and MBC; assay type: cell-based; conditions: Staphylococcus aureus, MRSA NRS386 (USA700)
Procedure: as §1

MRSA NRS385 (USA500) = assay: MIC and MBC; assay type: cell-based; conditions: Staphylococcus aureus, MRSA NRS385 (USA500)
Procedure: as §1

MRSA NRS387 (USA800) = assay: MIC and MBC; assay type: cell-based; conditions: Staphylococcus aureus, MRSA NRS387 (USA800)
Procedure: as §1

Escherichia coli BW25113 = assay: MIC against Gram-negative pathogens; assay type: cell-based
Procedure: as §1

MRSA NRS119 = assay: MIC and MBC; assay type: cell-based, Staphylococcus aureus; conditions: MRSA NRS119
Procedure: as §1

VRSA VRS12 = assay: MIC and MBC; assay type: cell-based, S. aureus; conditions: Staphylococcus aureus, VRSA VRS12
Procedure: as §1

VISA NRS1 = assay: MIC and MBC; assay type: cell-based, S. aureus; conditions: Staphylococcus aureus, VISA NRS1
Procedure: as §1

MRSA USA300 = assay: Time-kill analysis; assay type: cell-based, Staphylococcus aureus
Procedure: The time-kill analysis was performed as previously described^29. […] Aliquots (100 μL) were collected from each treatment after 0, 2, 4, 8, 12, and 24 hours of incubation at 37° C. and subsequently serially diluted in phosphate-buffered saline (PBS). Bacteria were then transferred to TSA plates and incubated at 37° C. for 18-20 hours before viable CFU/mL was determined.

[1] = tested on: Escherichia coli JW5503-1 (ΔtolC); assay: MIC against Gram-negative pathogens (efflux pump knockout); assay type: cell-based
Procedure: as §1

[2] = tested on: C. difficile NR-32895 (P19); assay: Clostridium difficile inhibition analysis; assay type: cell-based; conditions: Table 7, C. difficile NR-32895 (P19)
[3] = tested on: C. difficile NR-32891 (P13); assay: Clostridium difficile inhibition analysis; assay type: cell-based; conditions: Table 7, C. difficile NR-32891 (P13)
[4] = tested on: C. difficile NR-13435 (isolate 9); assay: Clostridium difficile inhibition analysis; assay type: cell-based; conditions: Table 7, C. difficile NR-13435 (isolate 9)
[5] = tested on: Clostridium difficile ATCC 43255; assay: Clostridium difficile inhibition analysis; assay type: cell-based; conditions: Table 7, C. difficile ATCC 43255
E. faecalis = assay: MIC (Table 5, strain not given); assay type: cell-based; conditions: Enterococcus faecalis; E. faecalis (Table 5)
Procedure: as §1

VRE = assay: MIC (Table 5, strain not given); assay type: cell-based; conditions: Enterococcus; VRE (Table 5)
Procedure: as §1

S. aureus = assay: MIC (Table 5, strain not given); assay type: cell-based; conditions: Staphylococcus aureus; S. aureus (Table 5)
Procedure: as §1

L. monocytogenes = assay: MIC (Table 5, strain not given); assay type: cell-based; conditions: Listeria monocytogenes; L. monocytogenes (Table 5)
Procedure: as §1

[6] = tested on: C. difficile NR-32883 (P2); assay: Clostridium difficile inhibition analysis; assay type: cell-based; conditions: Table 7, C. difficile NR-32883 (P2)
[7] = tested on: C. difficile NR-13432 (isolate 6); assay: Clostridium difficile inhibition analysis; assay type: cell-based; conditions: Table 7, C. difficile NR-13432 (isolate 6)
[8] = tested on: C. difficile NR-32904 (P30); assay: Clostridium difficile inhibition analysis; assay type: cell-based; conditions: Table 7, C. difficile NR-32904 (P30)
MRSA ATCC 33592 = assay: MIC, broth microdilution; assay type: cell-based; conditions: Staphylococcus aureus; MRSA ATCC 33592; read-out: MIC
Procedure: as §1

SMILES: CC(=O)NC[C@H]1CN(c2ccc(N3CCOCC3)c(F)c2)C(=O)O1 [Linezolid]
- MBC (E. faecium ATCC; read-out: MBC): 64 µg/mL (≈ 190 µM)
- MIC (E. faecium ATCC; read-out: MIC): ≤ 1 µg/mL
- MBC (MRSA NRS123 (USA400); read-out: MBC): 64 µg/mL (≈ 190 µM)
- MIC (MRSA NRS123 (USA400); read-out: MIC): ≤ 1 µg/mL
- MBC (MRSA NRS384 (USA300); read-out: MBC): 64 µg/mL (≈ 190 µM)
- MIC (MRSA NRS384 (USA300); read-out: MIC): ≤ 1 µg/mL
- MBC (MRSA NRS386 (USA700); read-out: MBC): 128 µg/mL (≈ 379 µM)
- MIC (MRSA NRS386 (USA700); read-out: MIC): ≤ 1 µg/mL
- MBC (MRSA NRS385 (USA500); read-out: MBC): 2 µg/mL (≈ 5.93 µM)
- MIC (MRSA NRS385 (USA500); read-out: MIC): ≤ 1 µg/mL
- MBC (MRSA NRS387 (USA800); read-out: MBC): 128 µg/mL (≈ 379 µM)
- MIC (MRSA NRS387 (USA800); read-out: MIC): ≤ 1 µg/mL
- MIC (Escherichia coli BW25113; Escherichia coli, BW25113): > 128 µg/mL
- MIC (MRSA NRS119): inactive
- MBC (MRSA NRS119; Staphylococcus aureus, read-out: MBC): 32 µg/mL (≈ 94.9 µM)
- MIC (MRSA NRS119; Staphylococcus aureus, read-out: MIC): 32 µg/mL (≈ 94.9 µM)
- MBC (VRSA VRS12; read-out: MBC): 32 µg/mL (≈ 94.9 µM)
- MIC (VRSA VRS12; read-out: MIC): ≤ 1 µg/mL
- MBC (VISA NRS1; read-out: MBC): 1 µg/mL (≈ 2.96 µM)
- MIC (VISA NRS1; read-out: MIC): ≤ 1 µg/mL
- reduction in MRSA USA300 (time-kill) (MRSA USA300; 3×MIC, after a 24-hour incubation period): 2.16 log10
- in vitro effect against MRSA USA300 (MRSA USA300; time-kill analysis and MBC): bacteriostatic
- MIC [1]: 8 µg/mL (≈ 23.7 µM)

SMILES: CC[C@H]1OC(=O)[C@H](C)[C@@H](O[C@H]2C[C@@](C)(OC)[C@@H](O)[C@H](C)O2)[C@H](C)[C@@H](O[C@@H]2O[C@H](C)C[C@H](N(C)C)[C@H]2O)[C@](C)(O)C[C@@H](C)C(=O)[C@H](C)[C@@H](O)[C@]1(C)O [Erythromycin]
- MIC (Escherichia coli BW25113; Escherichia coli BW25113 (wild-type), read-out: MIC): 32 µg/mL (≈ 43.6 µM)
- MIC [1]: ≤ 1 µg/mL

SMILES: C[C@@H]1C[C@H](C)CN(S(=O)(=O)c2ccc(C(=O)Nc3nnc(-c4ccc(C(F)(F)F)cc4)o3)cc2)C1 [HSGN-94, 4-(((3S,5R)-3,5-dimethylpiperidin-1-yl)sulfonyl)-N-(5-(4-(trifluoromethyl)phenyl)-1,3,4-oxadiazol-2-yl)benzamide]
- Antibacterial activity [2]: 0.06
- Antibacterial activity [3]: 0.125
- Antibacterial activity [4]: 0.06
- Antibacterial activity [5]: 0.06
- MIC (E. faecalis): 2 µg/mL (≈ 3.93 µM)
- MIC (VRE): 1 µg/mL (≈ 1.97 µM)
- MIC (S. aureus): 0.25 µg/mL (≈ 0.492 µM)
- MIC (L. monocytogenes): 0.5 µg/mL (≈ 0.983 µM)
- Antibacterial activity [6]: 0.06
- Antibacterial activity [7]: 0.06
- Antibacterial activity [8]: 0.125
- MIC (MRSA ATCC 33592): 0.25 µg/mL (≈ 0.492 µM)
